Molecules are shown by their SMILES.

The target of data set [1] is T1, Bile salt export pump (Rattus norvegicus, UniProt O70127).
T1 sequence (O70127 whole entry): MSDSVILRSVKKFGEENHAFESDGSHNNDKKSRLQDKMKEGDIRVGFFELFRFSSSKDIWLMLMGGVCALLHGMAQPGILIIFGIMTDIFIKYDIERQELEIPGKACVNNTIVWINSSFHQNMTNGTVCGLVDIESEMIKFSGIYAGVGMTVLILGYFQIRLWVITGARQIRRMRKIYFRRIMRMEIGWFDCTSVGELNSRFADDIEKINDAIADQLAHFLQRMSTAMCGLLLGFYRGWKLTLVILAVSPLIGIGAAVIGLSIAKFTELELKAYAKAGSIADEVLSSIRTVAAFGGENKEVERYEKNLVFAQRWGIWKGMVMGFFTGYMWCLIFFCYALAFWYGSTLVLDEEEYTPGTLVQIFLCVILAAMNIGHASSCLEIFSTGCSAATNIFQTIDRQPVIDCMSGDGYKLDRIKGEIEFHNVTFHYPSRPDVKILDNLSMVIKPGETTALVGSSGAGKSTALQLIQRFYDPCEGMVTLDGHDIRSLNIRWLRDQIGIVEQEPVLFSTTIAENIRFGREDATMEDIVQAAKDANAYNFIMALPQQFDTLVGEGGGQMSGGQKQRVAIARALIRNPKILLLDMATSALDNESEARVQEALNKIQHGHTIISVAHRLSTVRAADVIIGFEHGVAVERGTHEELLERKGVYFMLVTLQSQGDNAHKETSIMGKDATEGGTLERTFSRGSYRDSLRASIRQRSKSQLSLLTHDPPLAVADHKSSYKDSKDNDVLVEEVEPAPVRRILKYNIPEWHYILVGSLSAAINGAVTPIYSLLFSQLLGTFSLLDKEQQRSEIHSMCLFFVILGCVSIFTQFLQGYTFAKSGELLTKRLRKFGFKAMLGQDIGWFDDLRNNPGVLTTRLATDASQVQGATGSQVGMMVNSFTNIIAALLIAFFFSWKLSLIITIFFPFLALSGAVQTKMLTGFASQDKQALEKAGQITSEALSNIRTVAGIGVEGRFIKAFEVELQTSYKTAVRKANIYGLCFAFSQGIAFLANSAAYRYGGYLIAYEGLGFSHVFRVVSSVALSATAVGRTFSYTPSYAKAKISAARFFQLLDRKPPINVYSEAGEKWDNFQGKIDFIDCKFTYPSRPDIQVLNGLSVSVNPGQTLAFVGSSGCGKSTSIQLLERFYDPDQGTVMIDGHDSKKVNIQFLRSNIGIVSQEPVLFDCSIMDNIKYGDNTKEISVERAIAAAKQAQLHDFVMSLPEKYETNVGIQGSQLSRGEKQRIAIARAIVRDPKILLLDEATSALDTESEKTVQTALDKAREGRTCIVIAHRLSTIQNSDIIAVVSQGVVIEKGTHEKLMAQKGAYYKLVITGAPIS
Kind of data set: TP_TRANSPORTER: Northern blot from primary hepatocytes. It counts as functional, cell-based, Sprague-Dawley, Hepatocyte.

In data set [2] the target is T1, Bile salt export pump. As to the kind of experiment: TP_TRANSPORTER: Northern blot in vivo rat. It is filed as functional, organism-based, Liver.

As to `C[C@@H]1C[C@H]2[C@@H]3CCC4=CC(=O)C=C[C@]4(C)[C@@]3(F)[C@@H](O)C[C@]2(C)[C@@]1(O)C(=O)CO` [DEXAMETHASONE], the Activity result on Bile salt export pump [1] and on Bile salt export pump [2] was “inducer [+]” throughout.

(Values after ChEMBL document CHEMBL2074248, “Regulation of biliary drug efflux pump expression by hormones and xenobiotics” (Toxicology, 2001).)
